Experimental data as given in patent US11976083B2, “Inhibitors of peptidylarginine deiminases” (Gilead Sciences, Inc., priority 2020, dated 2024).

Target: T1, human PAD4 (Homo sapiens, UniProt Q9UM07)
T1 construct: human PAD4 (NM_012387), A2-P663, was PCR amplified; His-SUMO (N, cleaved yes); made in house; host or cells: E. coli BL21(DE3)
Experiment: In vitro PAD4 BAEE biochemical assay
Conditions: BAEE substrate 3 mM, 5 nM PAD4, 2 mM calcium chloride; geometric mean of multiple experiments
Procedure, shortened: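 Fluorescence read-out (ex 405/em 535 nm) of isoindole formed from ammonia, o-phthalaldehyde and DTT after EDTA stop. Reaction: 5 nM PAD4, 2 mM CaCl2, 3 mM BAEE, 2 h, 25 °C, after 30 min enzyme–compound preincubation. Normalised to BB-Cl-Amidine (50 µM) and DMSO controls.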

T1 sequence (Q9UM07 2-663): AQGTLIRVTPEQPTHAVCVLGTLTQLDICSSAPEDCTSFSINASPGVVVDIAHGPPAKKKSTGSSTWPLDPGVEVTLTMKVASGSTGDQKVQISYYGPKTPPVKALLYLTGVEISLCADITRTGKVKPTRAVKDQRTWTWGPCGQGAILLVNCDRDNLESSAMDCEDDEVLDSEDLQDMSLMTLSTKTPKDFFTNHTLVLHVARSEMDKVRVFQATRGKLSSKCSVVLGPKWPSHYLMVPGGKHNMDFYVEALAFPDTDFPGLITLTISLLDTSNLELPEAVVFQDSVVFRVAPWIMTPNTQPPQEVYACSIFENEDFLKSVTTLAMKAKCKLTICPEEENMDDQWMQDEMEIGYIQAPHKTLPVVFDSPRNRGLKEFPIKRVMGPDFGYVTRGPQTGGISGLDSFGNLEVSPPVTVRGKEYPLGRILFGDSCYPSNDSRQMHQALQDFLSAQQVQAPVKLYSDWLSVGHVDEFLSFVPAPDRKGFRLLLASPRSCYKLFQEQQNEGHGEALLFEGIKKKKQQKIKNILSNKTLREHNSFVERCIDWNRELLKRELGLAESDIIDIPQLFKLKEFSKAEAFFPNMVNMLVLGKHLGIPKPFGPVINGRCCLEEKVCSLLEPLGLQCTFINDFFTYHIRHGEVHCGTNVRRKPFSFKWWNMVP

Compound	IC50 [µM]
COc1cc(C(=O)N2C[C@H](N)[C@@H]3CC[C@H]2C3)cc2nc(-c3cc4ccc5nc4n3C[C@H]3C[C@H]3CC[C@]3(F)C[C@H]3C(=O)N[C@@H]5C)n(C3CC3)c12 [Example 772, (3~{S},5~{R},8~{S},10~ {S},13~{R})-19-[5-[(1~{S},4~ {R},5~{R})-4-amino-2-azabicyclo[3.2.1]octane-2-carbonyl]-1-cyclopropyl-7-methoxy-benzimidazol-2-yl]-8-fluoro-13-methyl-1,12,21-triazapentacyclo[12.5.2.0^ {3,5).0^{8,10}.0^{17,20}] henicosa-14(21), 15,17(20),18-tetraen-11-one]	0.006
C[C@H]1NC(=O)C2(CC2)OCCCC(F)(F)Cn2c(-c3nc4cc(C(=O)N5C[C@H](N)[C@@H]6CC[C@H]5C6)cc(F)c4n3C3CC3)cc3ccc1nc32 [Example 773, (11~{R})-17-[5-[(1~{S},4~{R}, 5~{R})-4-amino-2-azabicyclo [3.2.1]octane-2-carbonyl]-1-cyclopropyl-7-fluoro-benzimidazol-2-yl]-3,3-difluoro-11-methyl-spiro[7-oxa-1,10,19-triazatricyclo[10.5.2.0^ {15,18}]nonadeca-12(19),13,15(18),16-tetraene-8,1′-cyclopropane]-9-one]	0.016
C[C@H]1NC(=O)c2ccc(Cl)nc2CCCCCn2c(-c3nc4cc(C(=O)N5CC[C@H]6CC[C@@H]5[C@@H]6N)cc(F)c4n3C3CC3)cc3ccc1nc32 [Example 774, (2~{R})-17-[5-[(1~{R},5~{R}, 8~{R})-8-amino-2-azabicyclo [3.2.1]octane-2-carbonyl]-1-cyclopropyl-7-fluoro-benzimidazol-2-yl]-8-chloro-2-methyl-3,9,16,22-tetrazatetracyclo[14.5.2.0^ {5,10).0^{19,23}]tricosa-1(22),5(10),6,8,17,19(23),20-heptaen-4-one]	0.033
C[C@H]1NC(=O)[C@H]2[C@H](CCCCCn3c(-c4nc5cc(C(=O)N6C[C@H](N)[C@@H]7CC[C@H]6C7)cc(F)c5n4C4CC4)cc4ccc1nc43)C2(F)F [Example 775, (2~{R},5~{R},7~{S})-14-[5-[(1~{S},4~{R},5~{R})-4-amino-2-azabicyclo[3.2.1]octane-2-carbonyl]-1-cyclopropyl-7-fluoro-benzimidazol-2-yl]-6,6-difluoro-2-methyl-3,13,19-triazatetracyclo[11.5.2.0^ {5,7).0^{16,20}]icosa-1(19),14,16(20),17-tetraen-4-one]	0.029
C[C@H]1NC(=O)c2ccc(C(F)F)nc2CCCCCn2c(-c3nc4cc(C(=O)N5C[C@H](N)[C@@H]6CC[C@H]5C6)cc(F)c4n3[C@@H]3C[C@H]3F)cc3ccc1nc32 [Example 776, (2~{R})-17-[5-[(1~{S},4~{R}, 5~{R})-4-amino-2-azabicyclo [3.2.1]octane-2-carbonyl]-7-fluoro-1-[(1~{R},2~{R})-2-fluorocyclopropyl]benzimidazol-2-yl]-8-(difluoromethyl)-2-methyl-3,9,16,22-tetrazatetracyclo[14.5.2.0^ {5,10).0^{19,23}]tricosa-1(22),5(10),6,8,17,19(23),20-heptaen-4-one]	0.017
COc1cc(C(=O)N2C[C@H](N)[C@@H]3CC[C@H]2C3)cc2nc(-c3cc4ccc5nc4n3CCCCCc3nc(C(F)F)ccc3C(=O)N[C@@H]5C)c(C)n12 [Example 777, (2~{R})-17-[7-[(1~{S},4~{R},5~ {R})-4-amino-2-azabicyclo [3.2.1]octane-2-carbonyl]-5-methoxy-3-methyl-imidazo[1,2-a]pyridin-2-yl]-8-(difluoromethyl)-2-methyl-3,9,16,22-tetrazatetracyclo [14.5.2.0^{5,10).0^{19,23}] tricosa-1(22),5(10),6,8,17, 19(23),20-heptaen-4-one]	0.017
COc1cc(C(=O)N2CC[C@@H](OC)[C@@H](N)C2)cc2nc(-c3cc4ccc5nc4n3CCCCCCC(C)(C)C(=O)NC5C3CC3)n(C)c12 (some centres unmarked) [Example 778, 17-[5-[(3~{S),4~{R})-3-amino-4-methoxy-piperidine-1-carbonyl]-7-methoxy-1-methyl-benzimidazol-2-yl]-11-cyclopropyl-8,8-dimethyl-1,10,19-triazatricyclo [10.5.2.0^{15,18}]nonadeca-12,14,16,18-tetraen-9-one]	0.338
CCC1NC(=O)C(C)(C)CCCCCCn2c(-c3nc4cc(C(=O)N5CC[C@@H](OC)[C@@H](N)C5)cc(OC)c4n3C)cc3ccc1nc32 (some centres unmarked) [Example 779, 17-[5-[(3~{S),4~{R})-3-amino-4-methoxy-piperidine-1-carbonyl]-7-methoxy-1-methyl-benzimidazol-2-yl]-11-ethyl-8,8-dimethyl-1,10,19-triazatricyclo[10.5.2.0^ {15,18}]nonadeca-12,14,16,18-tetraen-9-one]	0.339
COc1cc(C(=O)N2CC[C@@H](OC)[C@@H](N)C2)cc2nc(-c3cc4ccc5nc4n3CCCCCc3ccc(Cl)nc3C(=O)N[C@@H]5C)n(C)c12 [Example 780, (2~{R})-17-[5-[(3~{S},4~{R})-3-amino-4-methoxy-piperidine-1-carbonyl]-7-methoxy-1-methyl-benzimidazol-2-yl]-7-chloro-2-methyl-3,6,16,22-tetrazatetracyclo[14.5.2.0^ {5,10).0^{19,23}]tricosa-1(21),5(10),6,8,17,19,22-heptaen-4-one]	0.053
COc1cc(C(=O)N2CC[C@@H](OC)[C@@H](N)C2)cc2nc(-c3cc4ccc5nc4n3CCC/C=C/c3ccc(Cl)nc3C(=O)N[C@@H]5C)n(C)c12 [Example 781, (2~{R},11~{E})-17-[5-[(3~ {S},4~{R})-3-amino-4-methoxy-piperidine-1-carbonyl]-7-methoxy-1-methyl-benzimidazol-2-yl]-7-chloro-2-methyl-3,6,16,22-tetrazatetracyclo[14.5.2.0^ {5,10}.0^{19,23}]tricosa-1(21),5(10),6,8,11,17,19,22-octaen-4-one]	0.073
COc1cc(C(=O)N2CC[C@@H](OC)[C@@H](N)C2)cc2nc(-c3cc4ccc5nc4n3CCCCC[C@@H]3C[C@H]3C(=O)NC5(C)C)n(C)c12 [Example 782, (5˜{R},7˜{R})-14-[5-[(3˜{S},4˜{R})-3-amino-4-methoxy-piperidine-1-carbonyl]-7-methoxy-1-methyl-benzimidazol-2-yl]-2,2-dimethyl-3,13,19-triazatetracyclo[11.5.2.0^{5,7}.0^{16,20}]icosa-1(18),14,16,19-tetraen-4-one]	0.063
COc1cc(C(=O)N2CC[C@@H](OC)[C@@H](N)C2)cc2nc(-c3cc4ccc5nc4n3CCCCCc3cc(Cl)cnc3C(=O)N[C@@H]5C)n(C)c12 [Example 783, (2~{R})-17-[5-[(3~{S},4~{R})-3-amino-4-methoxy-piperidine-1-carbonyl]-7-methoxy-1-methyl-benzimidazol-2-yl]-8-chloro-2-methyl-3,6,16,22-tetrazatetracyclo[14.5.2.0^ {5,10}.0^{19,23}] tricosa-1(21),5(10),6,8,17,19, 22-heptaen-4-one]	0.109
COc1cc(C(=O)N2CC[C@@H](OC(F)F)[C@@H](N)C2)cc2nc(-c3cc4ccc5nc4n3CCCCCc3ccc(Cl)nc3C(=O)N[C@@H]5C)n(C)c12 [Example 784, (2~{R})-17-[5-[(3~{S},4~{R})-3-amino-4-(difluoromethoxy)piperidine-1-carbonyl]-7-methoxy-1-methyl-benzimidazol-2-yl]-7-chloro-2-methyl-3,6,16,22-tetrazatetracyclo[14.5.2.0^ {5,10}.0^{19,23}]tricosa-1(21),5(10),6,8,17,19,22-heptaen-4-one]	0.097
COc1cc(C(=O)N2CC[C@@H](OC)[C@@H](N)C2)cc2nc(-c3cc4ccc5nc4n3CCCCCCC(C)(C)C(=O)NC5C(F)(F)F)n(C)c12 (some centres unmarked) [Example 785, 17-[5-[(3~{S},4~{R})-3-amino-4-methoxy-piperidine-1-carbonyl]-7-methoxy-1-methyl-benzimidazol-2-yl]-8,8-dimethyl-11-(trifluoromethyl)-1,10,19-triazatricyclo [10.5.2.0^{15,18}]nonadeca-12,14,16,18-tetraen-9-one]	0.954
COc1cc(C(=O)N2C[C@H](N)C[C@H](O)[C@@H]2C)cc2nc(-c3cc4ccc5nc4n3CCCCCCC(C)(C)C(=O)N[C@@H]5C)n(C)c12 [Example 786, (11~{R})-17-[5-[(2~{S},3~ {S},5~{R})-5-amino-3-hydroxy-2-methyl-piperidine-1-carbonyl]-7-methoxy-1-methyl-benzimidazol-2-yl]-8,8,11-trimethyl-1,10,19-triazatricyclo[10.5.2.0^ {15,18}]nonadeca-12,14,16,18-tetraen-9-one]	0.237
COc1cc(C(=O)N2CC[C@@H](OC)[C@@H](N)C2)cc2nc(-c3cc4ccc5nc4n3CCCCC[C@@H]3C[C@H]3C(=O)NC53CC3)n(C)c12 [Example 787, (5~{R},7~{R})-14-[5-[(3~{S}, 4~{R})-3-amino-4-methoxy-piperidine-1-carbonyl]-7-methoxy-1-methyl-benzimidazol-2-yl]spiro[3,13,19-triazatetracyclo[11.5.2.0^ {5,7}.0^{16,20}]icosa-1(18),14,16,19-tetraene-2,1′-cyclopropane]-4-one]	0.094
COc1cc(C(=O)N2CC[C@@H](OC)[C@@H](N)C2)cc2nc(-c3cc4ccc5nc4n3CCCCCc3nc4ccsc4cc3C(=O)N[C@@H]5C)n(C)c12 [Example 788, (2~{R})-20-[5-[(3~{S),4~{R})-3-amino-4-methoxy-piperidine-1-carbonyl]-7-methoxy-1-methyl-benzimidazol-2-yl]-2-methyl-8-thia-3,12,19,25-tetrazapentacyclo[17.5.2.0^ {5,13).0^{7,11}.0^{22,26}] hexacosa-1(24),5(13), 6,9,11,20,22,25-octaen-4-one]	0.035
